Experimental data reported in patent publication US10905691B2, “Use of triazolo(4,5-d)pyrimidine derivatives for prevention and treatment of bacterial infection” (Universite de Liege, priority 2016, dated 2021).
Converted amounts (≈) assume the structure as drawn.

Legend:
S. aureus ATCC 6538 [1] = test: MIC determination (EUCAST, Mueller-Hinton broth); assay type: cell-based; details: Staphylococcus aureus, ATCC6538
Experimental: (§1) Further experiments were conducted using different strains of S. aureus, as clinically relevant Gram-positive bacterial strains: ATCC 25904, ATCC 6538, methilcillin-resistant S. aureus (MRSA) ATCC BAA-1556, Glycopeptide intermediate-resistant (GISA) S. aureus Mu-50 (ATCC 700695) in order to determine the Minimal Inhibitory Concentration (MIC) which is the minimal concentration required to prevent bacterial growth; the Minimal Bactericidal Concentration (MBC) which determines the lowest concentration at which an antimicrobial agent kill a particular microorganism and a Minimum Duration for killing 99.9% bacteria (MDK99.9) which is a tolerance metric according to the EUCAST.
MIC determination: A single colony selected from the different strains of S. aureus is resuspended and cultured in the appropriate medium overnight (O/N) in aerobic conditions (37° C. with 220 rpm shaking), next day a 1:100 inoculum in Mueller-Hinton broth (MHB) was incubated in aerobic conditions for 3 hr (OD=0.08-0.1) and an inoculum of 1:300 dilution, corresponding to 3×10^5 CFU/ml, was incubated in presence or absence of different concentrations of Triafluocyl in 1% DMSO. After O/N growth the OD of each culture was measured at 600 nm in a spectrophotometer (OD600). […]

S. aureus Mu50 GISA = test: Killing curve (CFU counting); assay type: cell-based, Staphylococcus aureus; details: Triafluocyl 20 μg/ml vs high dose of Minocycline; FIG. 8B
Experimental: S. aureus Mu50 GISA was grown overnight in brain heart infusion (BHI) medium, diluted 1:100 in fresh BHI, and incubated aerobically at 37° C. until bacteria growth reached a logarithmic phase (OD600=0.25-0.3).
[…] Bacterial growth was measured after different time intervals by counting the colony-forming units after plating appropriate culture dilutions on BHI agar plates.

S. aureus (ATCC 25904) = test: Growth kinetics in logarithmic phase (OD600 and viable count); assay type: cell-based, Staphylococcus aureus; details: 20-100 min, FIG. 1
Experimental: S. aureus (American Type Culture Collection, ATCC 25904) was grown overnight in Tryptic Soy Broth (TSB) medium, diluted 1:100 in fresh TSB, and incubated aerobically at 37° C. until bacteria growth reached a logarithmic phase (OD600=0.25-0.3).
Increasing concentrations of Triafluocyl (Cayman Chemical, Item No. 15425) or vehicle (DMSO) was then added in 5 ml of bacteria suspensions. Bacterial growth was measured after different time intervals (20-100 min) by spectrophotometry (OD600) and by counting the colony-forming units after plating appropriate culture dilutions on TS agar plates.
In FIG. 1 kinetics of S. aureus growth in the presence of an increasing concentrations (1 μg/ml to 20 μg/ml) of Triafluocyl were measured by turbidity measurement (upper graph), and viable count (lower graph). Data represent medians±range (n=3). *p<0.05; **p<0.01, ***p<0.001, Triafluocyl vs vehicle.

[2] = test system: E. faecalis (ATCC 29212) biofilm; test: Biofilm formation on polystyrene (crystal violet); assay type: cell-based, Enterococcus faecalis; details: 20 hours
Experimental: E. faecalis (ATCC 29212) was grown overnight in BHI medium, before being diluted 100 fold in fresh TSB, and incubated aerobically at 37° C. until bacteria culture reached an OD600 of 0.6 (corresponding to approximately 2-5×10^8 CFU/ml). Bacteria cultures were then diluted to 1×10^4 CFU/ml in fresh TSB. 800 μl aliquots of diluted bacteria suspensions were distributed in each well of a 24-well plate. Bacteria were allowed to adhere for 4 hours under static conditions at 37° C. After removing media, wells were rinsed 2 times with PBS to eliminate planktonic bacteria and re-filled with TSB supplemented with 0.5% glucose
Triafluocyl or DMSO as vehicle was then added at desired concentration and plates were incubated at 37° C. for 20 hours. After incubation, wells were washed and stained with 0.5% (w/v) crystal violet for 30 minutes, washed again and the dye was solubilized by adding 20% acetic acid (v/v in water) before reading absorbance at 595 nm.
E. faecalis biofilms were formed on polystyrene surface in the presence of increasing concentrations of Triafluocyl or DMSO as vehicle. In FIG. 2, Biofilm mass is presented as percentage of values obtained in the presence of DMSO (*P<0.05; **P<0.01; ***P<0.001, Triafluocyl versus DMSO, n=4).

S. aureus ATCC 6538 [3] = test: MBC and MDK99.9 determination (CFU counting); assay type: cell-based, Staphylococcus aureus
Experimental: as §1
MBC and MDK99.9 determination: A single colony selected from the different strains of S. aureus is resuspended and cultured in the appropriate medium (TSB, or BHI) overnight (O/N) in aerobic conditions (37° C. with 220 rpm shaking), next day a 1:100 inoculum in the appropriate medium was incubated in aerobic conditions for 2 h. The culture is then challenged with triafluocyl at MIC concentration or higher concentrations. Bacterial growth was measured after different time intervals by counting the colony-forming units after plating appropriate culture dilutions on BHI agar plates. […] And the real time needed is defined as the MDK99.9. […]

MIC (S. aureus ATCC 6538 [1]): 20 µg/mL (≈ 38.3 µM)
Compound: CCCSc1nc(N[C@@H]2C[C@H]2c2ccc(F)c(F)c2)c2nnn([C@@H]3C[C@H](OCCO)[C@@H](O)[C@H]3O)c2n1 [Triafluocyl, (1S,2S,3R,5S)-3-[7-[(1R,2S)-2-(3,4-difluorophenyl)cyclopropylamino]-5-(propylthio)-3H-[1,2,3]-triazolo[4,5-d]pyrimidin-3-yl]-5-(2-hydroxyethoxy)-1,2-cyclopentanediol]
antibacterial effect on S. aureus GISA compared with Minocycline (S. aureus Mu50 GISA): quicker and more efficient antibacterial effect
effect on bacterial growth (turbidity and viable count) (S. aureus (ATCC 25904); 10 μg/ml): able to inhibit bacterial growth
effect on bacterial growth (turbidity and viable count) (S. aureus (ATCC 25904); 20 μg/ml): potent bactericidal effect
E. faecalis biofilm formation ([2]; 40 μg/ml, polystyrene surface): no biofilm could form
E. faecalis biofilm formation ([2]; starting concentration of 10 μg/ml, versus DMSO): significantly reduces
MDK 99.9 Time (h) needed to kill 99.9% of the started inoculum (S. aureus ATCC 6538 [3]): 6 h
MBC (S. aureus ATCC 6538 [3]; Staphylococcus aureus, ATCC6538, cut-off 99.9% reduction in CFU): 20 µg/mL (≈ 38.3 µM)
